In the supplement of paper PMC10733146:

Columns and labels:
Test in all cases: viability relative to DMSO control (fraction); higher = less drug effect (more viable cells)
Details in all cases: 48 h
[1] = compound: CC(C)N(CCCNC(=O)Nc1ccc(C(C)(C)C)cc1)C[C@H]1O[C@@H](n2cc(Br)c3c(N)ncnc32)[C@H](O)[C@@H]1O [SGC 0946]
Method in brief: (§1)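 Cells were incubated for 48 h at 37 °C and 5% CO2 in RPMI-1640 with penicillin/streptomycin, L-glutamine and human serum, at 4 × 10^4 cells per well in 384-well plates with compounds pre-plated at five concentrations, one well each. These were primary mononuclear tumour cells, fresh or cryopreserved, Ficoll-isolated from blood or bone marrow or obtained from processed lymph node. Viability values are CellTiter-Glo luminescence relative to the median of 16 inner DMSO wells.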

[2] = compound: CC1(C)CCC(CN2CCN(c3ccc(C(=O)NS(=O)(=O)c4ccc(NCC5CCOCC5)c([N+](=O)[O-])c4)c(Oc4cnc5[nH]ccc5c4)c3)CC2)=C(c2ccc(Cl)cc2)C1 [Venetoclax]
Method in brief: as §1

[3] = compound: CCN(c1cc(-c2ccc(CN3CCOCC3)cc2)cc(C(=O)NCc2c(C)cc(C)[nH]c2=O)c1C)C1CCOCC1 [EPZ-6438]
Method in brief: as §1

[4] = compound: CCS(=O)(=O)N1CCC([C@@H](C)n2c(C)c(C(=O)NCc3c(OC)cc(C)[nH]c3=O)c3ccccc32)CC1 [CPI-169]
Method in brief: as §1

[5] = compound: CC[C@]1(O)C[C@@H]2CN(CCc3c([nH]c4ccccc34)[C@@](C(=O)OC)(c3cc4c(cc3OC)N(C)[C@H]3[C@@](O)(C(N)=O)[C@H](O)[C@]5(CC)C=CCN6CC[C@]43[C@@H]65)C2)C1 [Vindesine]
Method in brief: as §1

[6] = compound: CCc1ccc(/C=C2/SC(=S)NC2=O)cc1
Method in brief: as §1

[7] = compound: CO[C@@H]1[C@H](N(C)C(=O)c2ccccc2)C[C@H]2O[C@]1(C)n1c3ccccc3c3c4c(c5c6ccccc6n2c5c31)C(=O)NC4 [Midostaurin hydrate]
Method in brief: as §1

[8] = compound: CO[C@H]1C[C@@H]2CC[C@@H](C)[C@@](O)(O2)C(=O)C(=O)N2CCCC[C@H]2C(=O)O[C@H]([C@H](C)C[C@@H]2CC[C@@H](OCCO)[C@H](OC)C2)CC(=O)[C@H](C)/C=C(\C)[C@@H](O)[C@@H](OC)C(=O)[C@H](C)C[C@H](C)/C=C/C=C/C=C/1C [Everolimus]
Method in brief: as §1

[9] = compound: COc1cc(C(=O)O)ccc1NC(=O)[C@@H]1N[C@@H](CC(C)(C)C)[C@](C#N)(c2ccc(Cl)cc2F)[C@H]1c1cccc(Cl)c1F [Idasanutlin (RS7388)]
Method in brief: as §1

[10] = compound: C[C@@H]1CCN(C(=O)CC#N)C[C@@H]1N(C)c1ncnc2[nH]ccc12 [Tofacitinib]
Method in brief: as §1

[11] = compound: C[C@H](NC(=O)CCC(F)(F)F)C(=O)N[C@@H]1C(=O)N(CCO)c2ncccc2-c2ccccc21
Method in brief: as §1

[12] = compound: C[C@H]1C[C@@H](n2c(Nc3ccc(OC(F)(F)F)cc3)nc3cc(CCC(=O)O)ccc32)CC(C)(C)C1
Method in brief: as §1

[13] = compound: c1cn2cc(-c3ccc4cn[nH]c4c3)nc(Nc3ccc(N4CCOCC4)cc3)c2n1 [Entospletinib]
Method in brief: as §1

In the case of primary CLL patient cells (S043), the viability ([1]; 0.024 µM) is reported as 0.87, the viability ([1]; 0.12 µM) is reported as 0.88 and the viability ([1]; 0.6 µM) is reported as 0.877. For the same test system, the viability ([1]; 3 µM) was 0.872, the viability ([1]; 15 µM) was 0.756 and the viability ([2]; 0.00064 µM) was 1.04. It also gave a viability ([2]; 0.0032 µM) of 0.927, a viability ([2]; 0.016 µM) of 0.917 and a viability ([2]; 0.08 µM) of 0.81. The viability ([2]; 0.4 µM) was 0.648, the viability ([3]; 0.024 µM) was 1.05 and the viability ([3]; 0.12 µM) was 0.982. It also gave a viability ([3]; 0.6 µM) of 0.926, a viability ([3]; 3 µM) of 0.963 and a viability ([3]; 15 µM) of 0.899. The viability ([4]; 0.024 µM) was 0.895, the viability ([4]; 0.12 µM) was 0.903 and the viability ([4]; 0.6 µM) was 0.877. For the same test system, the viability ([4]; 3 µM) was 0.915, the viability ([4]; 15 µM) was 0.915 and the viability ([5]; 0.016 µM) was 0.865. It also gave a viability ([5]; 0.08 µM) of 0.82, a viability ([5]; 0.4 µM) of 0.844 and a viability ([5]; 2 µM) of 0.666. The viability ([5]; 10 µM) was 0.605, the viability ([6]; 0.024 µM) was 0.742 and the viability ([6]; 0.12 µM) was 0.789. It also gave a viability ([6]; 0.6 µM) of 0.832, a viability ([6]; 3 µM) of 0.847 and a viability ([6]; 15 µM) of 0.868. The viability ([7]; 0.024 µM) was 0.923, the viability ([7]; 0.12 µM) was 0.911 and the viability ([7]; 0.6 µM) was 1.06. The viability ([7]; 3 µM) was 1.04, the viability ([7]; 15 µM) was 0.57 and the viability ([8]; 0.0032 µM) was 0.823. It also gave a viability ([8]; 0.016 µM) of 0.851, a viability ([8]; 0.08 µM) of 0.791 and a viability ([8]; 0.4 µM) of 0.831. The viability ([8]; 2 µM) was 0.793, the viability ([9]; 0.032 µM) was 0.915 and the viability ([9]; 0.16 µM) was 0.94. The viability ([9]; 0.8 µM) was 0.792, the viability ([9]; 4 µM) was 0.424 and the viability ([9]; 20 µM) was 0.176. For the same test system, the viability ([10]; 0.024 µM) was 0.937, the viability ([10]; 0.12 µM) was 0.965 and the viability ([10]; 0.6 µM) was 0.961. It also gave a viability ([10]; 3 µM) of 0.969, a viability ([10]; 15 µM) of 1.14 and a viability ([11]; 0.016 µM) of 0.892. It also gave a viability ([11]; 0.08 µM) of 1.11, a viability ([11]; 0.4 µM) of 0.984 and a viability ([11]; 2 µM) of 1.1. The viability ([11]; 10 µM) was 0.896, the viability ([12]; 0.024 µM) was 0.84 and the viability ([12]; 0.12 µM) was 0.859. It also gave a viability ([12]; 0.6 µM) of 0.895, a viability ([12]; 3 µM) of 1.08 and a viability ([12]; 15 µM) of 0.803. It also gave a viability ([13]; 0.024 µM) of 0.988, a viability ([13]; 0.12 µM) of 0.936 and a viability ([13]; 0.6 µM) of 0.94. For the same test system, the viability ([13]; 3 µM) was 0.977 and the viability ([13]; 15 µM) was 0.947.
Test System primary MCL patient cells (S068) has a viability ([1]; 0.024 µM) of 0.822, a viability ([1]; 0.12 µM) of 0.893 and a viability ([1]; 0.6 µM) of 0.877. For the same test system, the viability ([1]; 3 µM) was 0.79, the viability ([1]; 15 µM) was 0.462 and the viability ([2]; 0.00064 µM) was 0.99. For the same test system, the viability ([2]; 0.0032 µM) was 0.781, the viability ([2]; 0.016 µM) was 0.489 and the viability ([2]; 0.08 µM) was 0.389. The viability ([2]; 0.4 µM) was 0.216, the viability ([3]; 0.024 µM) was 0.954 and the viability ([3]; 0.12 µM) was 1.04. The viability ([3]; 0.6 µM) was 0.997, the viability ([3]; 3 µM) was 0.918 and the viability ([3]; 15 µM) was 0.767. It also gave a viability ([4]; 0.024 µM) of 0.823, a viability ([4]; 0.12 µM) of 0.922 and a viability ([4]; 0.6 µM) of 0.869. For the same test system, the viability ([4]; 3 µM) was 0.937, the viability ([4]; 15 µM) was 0.889 and the viability ([5]; 0.016 µM) was 0.511. It also gave a viability ([5]; 0.08 µM) of 0.439, a viability ([5]; 0.4 µM) of 0.43 and a viability ([5]; 2 µM) of 0.322. For the same test system, the viability ([5]; 10 µM) was 0.269, the viability ([6]; 0.024 µM) was 0.624 and the viability ([6]; 0.12 µM) was 0.721. For the same test system, the viability ([6]; 0.6 µM) was 0.737, the viability ([6]; 3 µM) was 0.806 and the viability ([6]; 15 µM) was 0.791. It also gave a viability ([7]; 0.024 µM) of 0.901, a viability ([7]; 0.12 µM) of 0.855 and a viability ([7]; 0.6 µM) of 0.699. For the same test system, the viability ([7]; 3 µM) was 0.431, the viability ([7]; 15 µM) was 0.24 and the viability ([8]; 0.0032 µM) was 0.66. It also gave a viability ([8]; 0.016 µM) of 0.642, a viability ([8]; 0.08 µM) of 0.643 and a viability ([8]; 0.4 µM) of 0.657. The viability ([8]; 2 µM) was 0.685, the viability ([9]; 0.032 µM) was 0.916 and the viability ([9]; 0.16 µM) was 0.998. The viability ([9]; 0.8 µM) was 0.916, the viability ([9]; 4 µM) was 0.74 and the viability ([9]; 20 µM) was 0.646. For the same test system, the viability ([10]; 0.024 µM) was 0.953, the viability ([10]; 0.12 µM) was 0.948 and the viability ([10]; 0.6 µM) was 0.896. It also gave a viability ([10]; 3 µM) of 0.884, a viability ([10]; 15 µM) of 0.757 and a viability ([11]; 0.016 µM) of 1.29. The viability ([11]; 0.08 µM) was 1.33, the viability ([11]; 0.4 µM) was 1.24 and the viability ([11]; 2 µM) was 1.33. It also gave a viability ([11]; 10 µM) of 1.3, a viability ([12]; 0.024 µM) of 0.917 and a viability ([12]; 0.12 µM) of 0.852. The viability ([12]; 0.6 µM) was 0.72, the viability ([12]; 3 µM) was 0.859 and the viability ([12]; 15 µM) was 0.843. It also gave a viability ([13]; 0.024 µM) of 0.935, a viability ([13]; 0.12 µM) of 0.92 and a viability ([13]; 0.6 µM) of 0.872. The viability ([13]; 3 µM) was 0.836 and the viability ([13]; 15 µM) was 0.888.
